Here are results for twelve sequences from patent US20020035061A1, “COMPOSITIONS AND METHODS FOR TREATING INFECTIONS USING CATIONIC PEPTIDES ALONE OR IN COMBINATION WITH ANTIBIOTICS” (priority 1996, published 2002).

Where two headings read alike, the source gives them in different places. Some results are limits rather than exact numbers.

The subject of test [1] is E. cloacae. Format: cell-based. Particulars: E. cloacae strain ECL007.
Test [2] deals with E. coli. It counts as cell-based. Particulars: for Peptide MIC values: agarose dilution.
Test [3] has as its system E. faecalis. It counts as cell-based.
Test [4] deals with E. faecium. Format: cell-based.
In test [5] the test system is K. pneumoniae. It counts as cell-based.
In test [6] the test system is P. aeruginosa. Format: cell-based. Particulars: for Peptide MIC values: agarose dilution.
Test [7] has as its system S. aureus. Format: cell-based. Particulars: for Peptide MIC values: agarose dilution.
Test [8] relates to S. marcescens. It counts as cell-based.
For test [9], the system named is S. pneumoniae. Nature of the test: Agarose dilution assay (MIC). Format: cell-based. To be noted: agarose dilution.
The test system of test [10] is microorganisms with acquired resistance. The experiment in a line: microbe, parasite or virus in culture. It counts as cell-based. Particulars: S. aureus; combination with Mupirocin; in µg/mL.
Test [11] relates to A. calcoaceticus. Format: cell-based.
In test [12] the test system is S. epidermidis. Format: cell-based.
Test [13] has as its system S. maltophilia. Format: cell-based.
The test system of test [14] is MSSA (Smith, ATCC # 19640). Nature of the test: In vivo efficacy, MSSA infection. More on the design: species or system S. aureus. Particulars: formulation D, 60 min post-infection, end of eight day observation.

For ILKKWVWWVWRRK [MBI 11F1CN], the MIC in test [1] was above 128 µg/mL; in test [2] (E. coli strain ECO003), 8 µg/mL; in test [3] (E. faecalis strain EFS004), 16 µg/mL; in [4] (E. faecium strain EFM003), 2 µg/mL; in test [5] (K. pneumoniae strain KP002), 32 µg/mL; in test [6] (P. aeruginosa strain PA004), 64 µg/mL. Also, the MIC in [7] (S. aureus strain SA009) was 2 µg/mL; in test [8] (S. marcescens strain SBSM1), above 128 µg/mL; in test [8] (S. marcescens strain SMS003), above 128 µg/mL. The “Peptide MIC values” in test [2] (E. coli ATCC 25922) worked out at 8 µg/mL; in test [2] (E. coli NCTC 10418), 2 µg/mL; in test [4] (agarose dilution), 8 µg/mL; in test [6] (P. aeruginosa ATCC 27853) it was 64 µg/mL; in test [6] (P. aeruginosa NCTC 10662), 64 µg/mL; in [7] (S. aureus MRSA9), 2 µg/mL. Also, the “Peptide MIC values” in test [7] (S. aureus MRSA13) was 16 µg/mL; in test [7] (S. aureus MRSA17) it was 2 µg/mL; in test [8] (agarose dilution, S. marcescens SM82) it was above 128 µg/mL; in test [9] (S. pneumoniae 406LE8) it was 128 µg/mL; in test [9] (S. pneumoniae 60120), 128 µg/mL; in test [9] (S. pneumoniae ATCC 49619), 64 µg/mL. Further, the “Peptide MIC” value in test [10] is 8.
ILKNPNNPWRR [MBI 11G7ACN]: the MIC was 4 µg/mL in test [11] (A. calcoaceticus strain AC002); above 32 µg/mL in [1]; 16 µg/mL in test [2] (E. coli strain ECO002); 32 µg/mL in test [3] (E. faecalis strain EFS008); 8 µg/mL in test [4] (E. faecium strain EFM001); above 32 µg/mL in test [5] (K. pneumoniae strain KP002). The MIC was above 32 µg/mL in [6] (P. aeruginosa strain PA006); 1 µg/mL in [7] (S. aureus strain SA010); 4 µg/mL in [12] (S. epidermidis strain SE002); 32 µg/mL in test [13] (S. maltophilia strain SMA001); above 32 µg/mL in [8] (S. marcescens strain SMS004).
Turning to IKKWPWWPWRRK [MBI 11G2CN], the MIC is above 128 µg/mL in test [1]; 16 µg/mL in [2] (E. coli strain ECO003); 16 µg/mL in [3] (E. faecalis strain EFS004); 4 µg/mL in [4] (E. faecium strain EFM002); 128 µg/mL in test [5] (K. pneumoniae strain KP002); above 128 µg/mL in test [6] (P. aeruginosa strain PA004). In addition, the MIC was 2 µg/mL in test [7] (S. aureus strain SA009), above 128 µg/mL in [13] (S. maltophilia strain SMA001) and above 128 µg/mL in test [8] (S. marcescens strain SMS004). The “% Survival” value is 10% in test [14] (12 mg/kg ip), 0% in test [14] (18 mg/kg ip) and 40% in [14] (24 mg/kg ip).
On to ILKKWPWWPWRRK [MBI 11E2CN], for which the MIC in test [11] (A. calcoaceticus strain AC002) was 4 µg/mL; in [1] it was above 128 µg/mL; in test [2] (E. coli strain ECO002) it was 8 µg/mL; in test [3] (E. faecalis strain EFS002), 32 µg/mL; in test [4] (E. faecium strain EFM001), 16 µg/mL; in [5] (K. pneumoniae strain KP002), 64 µg/mL. In addition, the MIC is above 128 µg/mL in [6] (P. aeruginosa strain PA001); 2 µg/mL in test [7] (S. aureus strain SA016); 4 µg/mL in test [12] (S. epidermidis strain SE010); 64 µg/mL in test [13] (S. maltophilia strain SMA001); above 128 µg/mL in test [8] (S. marcescens strain SMS004).
ILKKFPFWPWRRK [MBI 11A7CN]: the MIC was 4 µg/mL in test [11] (A. calcoaceticus strain AC002); above 128 µg/mL in test [1]; 8 µg/mL in [2] (E. coli strain ECO005); 2 µg/mL in test [3] (E. faecalis strain EFS001); 16 µg/mL in [3] (E. faecalis strain EFS002); 4 µg/mL in test [3] (E. faecalis strain EFS008). The MIC was 2 µg/mL in test [4] (E. faecium strain EFM003); 8 µg/mL in test [5] (K. pneumoniae strain KP001); above 128 µg/mL in test [6] (P. aeruginosa strain PA004); 2 µg/mL in test [7] (S. aureus strain SA009); 4 µg/mL in test [7] (S. aureus strain SA014); 1 µg/mL in test [7] (S. aureus strain SA093). In addition, the MIC in test [12] (S. epidermidis strain SE010) is 4 µg/mL; in test [13] (S. maltophilia strain SMA002) it was 64 µg/mL; in [8] (S. marcescens strain SMS003), above 128 µg/mL.
Consider ILKKWPWWPWR [MBI 11G14CN], for which the MIC is 8 µg/mL in [11] (A. calcoaceticus strain AC002); above 128 µg/mL in [1]; 32 µg/mL in test [2] (E. coli strain ECO003); 32 µg/mL in [3] (E. faecalis strain EFS002); 16 µg/mL in test [4] (E. faecium strain EFM001); 128 µg/mL in [5] (K. pneumoniae strain KP002). Moreover, the MIC in test [6] (P. aeruginosa strain PA006) is above 128 µg/mL; in test [7] (S. aureus strain SA013), 0.5 µg/mL; in test [12] (S. epidermidis strain SE002), 8 µg/mL; in [13] (S. maltophilia strain SMA002) it was 128 µg/mL; in test [8] (S. marcescens strain SMS004), above 128 µg/mL.
With ILKKWPWWAWRRK [MBI 11C4CN], the MIC was 4 µg/mL in [11] (A. calcoaceticus strain AC002); above 128 µg/mL in test [1]; 32 µg/mL in test [2] (E. coli strain ECO005); 32 µg/mL in test [3] (E. faecalis strain EFS002); 2 µg/mL in [4] (E. faecium strain EFM003); above 128 µg/mL in test [5] (K. pneumoniae strain KP001). For the same sequence, the MIC in test [6] (P. aeruginosa strain PA005) is above 128 µg/mL; in [7] (S. aureus strain SA009) it was 4 µg/mL; in [12] (S. epidermidis strain SE002), 4 µg/mL; in test [13] (S. maltophilia strain SMA002), 64 µg/mL; in test [8] (S. marcescens strain SMS004) it was above 128 µg/mL.
Regarding ILKKFPWFPWRRK [MBI 11A6CN], the MIC in test [11] (A. calcoaceticus strain AC002) is 2 µg/mL; in test [1], above 128 µg/mL; in [2] (E. coli strain ECO005), 16 µg/mL; in [3] (E. faecalis EFS004) it was 64 µg/mL; in test [3] (E. faecalis strain EFS001), 1 µg/mL; in [3] (E. faecalis strain EFS008) it was 8 µg/mL. The MIC in test [4] (E. faecium EFM003) is 2 µg/mL; in test [5] (K. pneumoniae strain KP001), 32 µg/mL; in test [6] (P. aeruginosa strain PA004) it was above 128 µg/mL; in [7] (S. aureus SA016) it was 2 µg/mL; in test [7] (S. aureus strain SA014) it was 4 µg/mL; in test [7] (S. aureus strain SA093), 0.5 µg/mL. Further, the values for the MIC in [12] (S. epidermidis strain SE010), in test [13] (S. maltophilia strain SMA002) and in test [8] (S. marcescens strain SMS003) were 4 µg/mL, 128 µg/mL and above 128 µg/mL, respectively.
As for ILRRWPWWPWRRR [MBI 11B9ACN], the MIC in [11] (A. calcoaceticus strain AC001) was 32 µg/mL; in test [1], above 128 µg/mL; in test [2] (E. coli strain ECO003) it was 8 µg/mL; in test [3] (E. faecalis strain EFS004), 8 µg/mL; in test [4] (E. faecium strain EFM001) it was 4 µg/mL; in test [5] (K. pneumoniae strain KP002), 32 µg/mL. For the same sequence, the MIC in [6] (P. aeruginosa strain PA005) is above 128 µg/mL; in test [7] (S. aureus strain SA019) it was 2 µg/mL; in test [12] (S. epidermidis strain SE002), 2 µg/mL; in [13] (S. maltophilia strain SMA001), 16 µg/mL; in [8] (S. marcescens strain SMS004), above 128 µg/mL.
For ILKKWWWPWRRK [MBI 11G4CN], the MIC was 4 µg/mL in test [11] (A. calcoaceticus strain AC002); above 128 µg/mL in test [1]; 32 µg/mL in test [2] (E. coli strain ECO005); 32 µg/mL in [3] (E. faecalis strain EFS002); 1 µg/mL in [4] (E. faecium strain EFM003); above 128 µg/mL in test [5] (K. pneumoniae strain KP001). For the same sequence, the MIC was above 128 µg/mL in test [6] (P. aeruginosa strain PA004); 1 µg/mL in [7] (S. aureus strain SA004); 2 µg/mL in [12] (S. epidermidis strain SE010); 64 µg/mL in [13] (S. maltophilia strain SMA002); above 128 µg/mL in test [8] (S. marcescens strain SMS003). In addition, the “% Survival” value is listed as 0% in test [14] (12 mg/kg ip), 0% in test [14] (18 mg/kg ip) and 20% in test [14] (24 mg/kg ip).
Take ILKKWAWWPWRRK [MBI 11C3CN]: the MIC in [11] (A. calcoaceticus strain AC002) was 4 µg/mL; in [1], above 128 µg/mL; in test [2] (E. coli strain ECO002), 16 µg/mL; in test [3] (E. faecalis strain EFS002) it was 32 µg/mL; in [4] (E. faecium strain EFM002), 1 µg/mL; in test [5] (K. pneumoniae strain KP001) it was 128 µg/mL. The MIC in test [6] (P. aeruginosa strain PA005) was above 128 µg/mL; in [7] (S. aureus strain SA005), 2 µg/mL; in test [12] (S. epidermidis strain SE002), 2 µg/mL; in test [13] (S. maltophilia strain SMA002) it was 64 µg/mL; in test [8] (S. marcescens strain SMS004), above 128 µg/mL.
As to ILKKWPWWPWRRIMILKKAGS [MBI 11D6CN], the MIC was 4 µg/mL in test [11] (A. calcoaceticus strain AC002); above 32 µg/mL in [1]; 32 µg/mL in test [2] (E. coli strain ECO002); 4 µg/mL in test [3] (E. faecalis strain EFS002); 1 µg/mL in test [4] (E. faecium strain EFM003); above 64 µg/mL in [5] (K. pneumoniae strain KP002). The MIC in test [6] (P. aeruginosa strain PA024) is above 64 µg/mL; in test [7] (S. aureus strain SA009), 8 µg/mL; in [12] (S. epidermidis strain SE010), 4 µg/mL; in [13] (S. maltophilia strain SMA001), above 64 µg/mL; in [8] (S. marcescens strain SMS004) it was above 64 µg/mL.

In general, MIC refers to the lowest concentration found to suppress growth.
